≈ marks a conversion by molar mass, not a printed value. Like-named read-outs stand apart in the source and are kept apart here.

Common to all, as to assay type: in vivo
Assay [1] has as its system tobacco cutworm (Spodoptera litura). In words: Test Example 2: insecticidal test on tobacco cutworm fourth larvae, artificial diet. The note with it: 144 h. Here is the method: (§1) Anyone of Compound Nos. 1 to 12 (10 parts), polyoxyethylene styrylphenyl ether (14 parts), calcium dodecylbenzenesulfonate (6 parts), xylene (35 parts) and dimethylformamide (35 parts) are mixed well to make an emulsifiable concentrate preparation.
An emulsifiable concentrate preparation formulated as in Formulation Example 2 was diluted with water to make a designed dilution of the test compound. An artificial diet (13 g) for tobacco cutworm (Spodoptera litura) was impregnated with said dilution (2 ml) and placed into a polyethylene-made cup of 11 cm in diameter. Fourth larvae (10 insects) of tobacco cutworm were released therein. Six days thereafter, observation was made to determine the number of death, and the LC50 value (i.e. lethal concentration to 50% death) was calculated therefrom (two replications).

The subject of assay [2] is common mosquito (Culex pipiens pallens). The experiment in a line: Test Example 1: emergence of common mosquito from last instar larvae. To be noted: 3.5 ppm in water; twenty last instar larvae; feeding up to emergence; two replications. Here is the method: as §1
An emulsifiable concentrate preparation formulated as in Formulation Example 2 was diluted with water to make a dilution containing the test compound in a concentration of 3.5 ppm. The dilution (100 ml) was charged in a plastic cup of 180 ml volume, and twenty last instar larvae of common mosquito (Culex pipiens pallens) were released therein. Feeding was continued up to emergence, and the rate of emergence was observed (two replications).

The test system of assay [3] is housefly (Musca domestica). The experiment in a line: Test Example 4: emergence of housefly from nits reared on treated artificial culture. The note with it: 10 ppm dilution (10,000 fold, 28 ml) in artificial culture; fifty nits, cultivated until pupation. Here is the method: as §1
Powdered animal feed (2 g) was thoroughly mixed with bran (14 g). An emulsifiable concentrate preparation formulated as in Formulation Example 2 was diluted with water to make a 10,000 fold dilution (corresponding to 10 ppm; 28 ml) and added to the above mixture. The resultant mixture was stirred well to make an artificial culture for housefly. Fifty nits of housefly (Musca domestica) were cultivated therein until their pupation. The obtained pupae were placed into a plastic cup, and the rate of emergence was observed.

Assay [4] concerns rice stem borer (Chilo suppressalis). In words: Test Example 3: insecticidal test on rice stem borer ten-day old larvae, artificial diet. To be noted: 192 h, eight days, two replications. Here is the method: as §1
An emulsifiable concentrate preparation formulated as in Formulation Example 2 was diluted with water to make a designed dilution of the test compound. Five grams of artificial diet placed into a polyethylene-made cup of 5.5 cm in diameter was impregnated with said dilution (1 ml). Ten-day old larvae (10 insects) of rice stem borer (Chilo suppressalis) were released therein. Eight days thereafter, observation was made to determine the number of death, and the LC50 value was calculated therefrom (two replications).

The mark [5] stands for this setting: lethal concentration to 50% death, fourth larvae, artificial diet, six days, two replications, read-out: LC50.

`O=C(NC(=O)c1c(F)cccc1F)Nc1ccc(Cl)cc1` [A, Diflubenzuron, reference compound] came in with an LC50 in assay [1] of 4.4 µg/mL (≈ 14.2 µM).
On to `CNC(=O)ON=C(C)SC` [B, Methomyl, reference compound], for which the LC50 in assay [1] worked out at 8 µg/mL (≈ 49.3 µM).
Regarding `O=C(NC(=O)c1c(F)cccc1F)Nc1ccc(Oc2cc(Cl)cc(Cl)c2)cc1` [C, 3-(2,6-difluorobenzoyl)-1-[4-(3,5-dichlorophenoxy)phenyl]urea, reference compound], the LC50 in assay [1] (setting [5]) is 6.5 µg/mL (≈ 14.9 µM).
Consider `Cc1cc(NC(=O)NC(=O)c2c(F)cccc2F)cc(C)c1Oc1cc(F)cc(F)c1` [Compound 1, N-2,6-difluorobenzoyl-N'-4-(3,5-difluorophenoxy)-3,5-dimethylphenylurea], for which the Rate of emergence came to 0% in assay [2] and 2% in assay [3]. Further, the LC50 in assay [1] (setting [5]) came to 0.5 µg/mL (≈ 1.16 µM).
Consider `O=C(NC(=O)c1c(F)cccc1F)Nc1cc(Cl)c(Oc2cc(F)cc(F)c2)c(Cl)c1` [Compound 2, N-2,6-difluorobenzoyl-N'-4-(3,5-difluorophenoxy)-3,5-dichlorophenylurea], for which the Rate of emergence in assay [2] and in assay [3] was 0% each time. For the same compound, the LC50 in assay [1] (setting [5]) was 2.5 µg/mL (≈ 5.28 µM); in assay [4], 12 µg/mL (≈ 25.4 µM).
In the case of `O=C(NC(=O)c1c(F)cccc1F)Nc1cc(Cl)c(Oc2c(F)c(F)c(F)c(F)c2F)c(Cl)c1` [Compound 3], the Rate of emergence in assay [2] and in assay [3] was 0% in each case. The 50% lethal concentration (LC50) in assay [1] (setting [5]) was 2.3 µg/mL (≈ 4.36 µM).
As to `Cc1cc(NC(=O)NC(=O)c2ccccc2Cl)cc(C)c1Oc1cc(F)cc(F)c1` [Compound 4], the Rate of emergence in assay [2] was 0%. The LC50 in assay [1] (setting [5]) came to 1.5 µg/mL (≈ 3.48 µM); in assay [4] it was 10 µg/mL (≈ 23.2 µM).
In assay [2], `O=C(NC(=O)c1ccccc1Cl)Nc1cc(Cl)c(Oc2cc(F)cc(F)c2)c(Cl)c1` [Compound 5] gave a Rate of emergence of 0%.
Consider `O=C(NC(=O)c1ccccc1Cl)Nc1cc(Cl)c(Oc2c(F)c(F)c(F)c(F)c2F)c(Cl)c1` [Compound 6], for which the Rate of emergence in assay [2] and in assay [3] was 0% in each case. In addition, the LC50 in assay [1] (setting [5]) came to 2.7 µg/mL (≈ 5.14 µM).
Take `O=C(NC(=O)c1ccccc1Cl)Nc1cc(Cl)c(Oc2c(Cl)c(Cl)c(Cl)c(Cl)c2Cl)c(Cl)c1` [Compound 7]: the Rate of emergence in assay [2] worked out at 0%.
In assay [2], `O=C(NC(=O)c1c(F)cccc1F)Nc1cc(Cl)c(Oc2c(Cl)c(Cl)c(Cl)c(Cl)c2Cl)c(Cl)c1` [Compound 8] returned a Rate of emergence of 0%. The same compound showed an LC50 in assay [4] of 15 µg/mL (≈ 24.6 µM).
`Cc1cc(NC(=O)NC(=O)c2c(F)cccc2F)cc(C)c1Oc1c(F)c(F)c(F)c(F)c1F` [Compound 9] yielded a Rate of emergence in assay [2] of 0%. Moreover, the LC50 in assay [1] (setting [5]) came to 0.64 µg/mL (≈ 1.32 µM).
`Cc1cc(NC(=O)NC(=O)c2ccccc2Cl)cc(C)c1Oc1c(F)c(F)c(F)c(F)c1F` [Compound 10] registered a Rate of emergence in assay [2] of 0%. Also, in assay [1] (setting [5]), the 50% lethal concentration (LC50) was found to be 1.2 µg/mL (≈ 2.48 µM).
On to `Cc1cc(NC(=O)NC(=O)c2c(F)cccc2Cl)cc(C)c1Oc1cc(F)cc(F)c1` [Compound 11], for which the Rate of emergence in assay [2] worked out at 0%. Also, the LC50 in assay [1] (setting [5]) came to 1.6 µg/mL (≈ 3.56 µM).
Compound `Cc1cc(NC(=O)NC(=O)c2c(F)cccc2Cl)cc(C)c1Oc1c(F)c(F)c(F)c(F)c1F` [Compound 12] had a Rate of emergence in assay [2] of 0%.

Broadly, the LC50 is the concentration lethal to half of the exposed cells or organisms.
